The values that follow come from US8883778B2, “Cyclic inhibitors of 11 beta-hydroxysteroid dehydrogenase 1” (Vitae Pharmaceuticals, Inc., priority 2009, dated 2014).

The target in this test is 11β-HSD1 (Homo sapiens, UniProt P28845). In words: Inhibition of a microsomal preparation of 11β-HSD1, scintillation proximity assay. To be noted: microsomes from CHO cells overexpressing human 11β-HSD1; for inhibition at 0.1 µM: at 100 nM. It is filed as biochemical. Details: expressed in transfected cells; host or cells: CHO cells (microsomes). Here is the method:
All reactions were carried out at rt in 96 well clear flexible PET Microbeta plates (PerkinElmer). […] After a 10 minute pre-incubation, 50 μL of enzyme solution containing microsomes isolated from CHO cells overexpressing human 11β-HSD1 (10-20 μg/ml of total protein) was added, and the plates were incubated for 90 minutes at rt. The reaction was stopped by adding 50 μl of the SPA beads suspension containing 10 μM 18β-glycyrrhetinic acid, 5 mg/ml protein A coated YSi SPA beads (GE Healthcare) and 3.3 μg/ml of anti-cortisol antibody (East Coast Biologics) in Superblock buffer (Bio-Rad). The plates were shaken for 120 minutes at rt, and the SPA signal corresponding to [^3H]cortisol was measured on a Microbeta plate reader.

Molecules are shown by their SMILES.

11β-HSD1, sequence (P28845 whole entry): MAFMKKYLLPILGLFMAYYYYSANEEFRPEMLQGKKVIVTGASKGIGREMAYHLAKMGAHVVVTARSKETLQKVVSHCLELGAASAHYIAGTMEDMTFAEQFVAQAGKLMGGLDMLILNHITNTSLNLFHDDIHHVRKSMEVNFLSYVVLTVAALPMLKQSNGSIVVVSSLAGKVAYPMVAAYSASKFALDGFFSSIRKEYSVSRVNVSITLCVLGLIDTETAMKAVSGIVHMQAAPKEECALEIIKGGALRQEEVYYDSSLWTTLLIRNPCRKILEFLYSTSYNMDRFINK

As usually defined, the inhibition is the drop in the measured response relative to a control, in per cent. High values mean a response far below the control, low ones a response near the control. One may read the IC50 as the point on the concentration scale where inhibition reaches its midpoint. Regarding `COC(=O)NC(C)(C)C#Cc1ccc([C@H](C)N2CC[C@](CC(C)(C)O)(c3ccccc3)OC2=O)cc1` [Example 18, methyl 4-(4-((S)-1-((S)-6-(2-hydroxy-2-methylpropyl)-2-oxo-6-phenyl-1,3-oxazinan-3-yl)ethyl)phenyl)-2-methylbut-3-yn-2-ylcarbamate], the inhibition at 0.1 µM came out at 94.5% and the half-inhibitory concentration (IC50) is 3.7 nM.
`COC(=O)NC1(C#Cc2ccc([C@H](C)N3CC[C@](CC(C)(C)O)(c4ccccc4)OC3=O)cc2)CCCCC1` [Example 15, Methyl 1-((4-((S)-1-((S)-6-(2-hydroxy-2-methylpropyl)-2-oxo-6-phenyl-1,3-oxazinan-3-yl)ethyl)phenyl)ethynyl)cyclohexylcarbamate]: 0.1 µM produced 92.4% inhibition and half-maximal inhibition (IC50) required 2.4 nM.
In turn, `C[C@@H](c1ccc(C#CC2(O)CCCC2)cc1)N1CC[C@](CC(C)(C)O)(c2ccccc2)OC1=O` [Example 2, (S)-6-(2-hydroxy-2-methylpropyl)-3-((S)-1-(4-((1-hydroxycyclopentyl)ethynyl)phenyl)ethyl)-6-phenyl-1,3-oxazinan-2-one] registered an inhibition at 0.1 µM of 89.1% and a 50% inhibitory concentration (IC50) of 1.9 nM.
`C[C@@H](c1ccc(C#CC(C)(C)NC(N)=O)cc1)N1CC[C@](CC(C)(C)O)(c2ccccc2)OC1=O` [Example 19, 1-(4-(4-((S)-1-((S)-6-(2-hydroxy-2-methylpropyl)-2-oxo-6-phenyl-1,3-oxazinan-3-yl)ethyl)phenyl)-2-methylbut-3-yn-2-yl)urea] displayed an inhibition at 0.1 µM of 97.6% and an IC50 of 2.4 nM.
Take `COC(=O)N1CC(O)(C#Cc2ccc([C@H](C)N3CC[C@](CC(C)(C)O)(c4ccccc4)OC3=O)cc2)C1` [Example 26, Methyl 3-hydroxy-3-((4-((S)-1-((S)-6-(2-hydroxy-2-methylpropyl)-2-oxo-6-phenyl-1,3-oxazinan-3-yl)ethyl)phenyl)ethynyl)azetidine-1-carboxylate]: the inhibition at 0.1 µM was determined as 95.9% and the 50% inhibitory concentration (IC50) stood at 2.8 nM.
For the compound `C[C@@H](c1ccc(C#CC2(O)CNC2)cc1)N1CC[C@](CC(C)(C)O)(c2ccccc2)OC1=O` [Example 24, (S)-6-(2-hydroxy-2-methylpropyl)-3-((S)-1-(4-((3-hydroxyazetidin-3-yl)ethynyl)phenyl)ethyl)-6-phenyl-1,3-oxazinan-2-one], 0.1 µM produced 56.1% inhibition and the IC50 came out at 62.3 nM.
In turn, `CC(=O)NC1(C#Cc2ccc([C@H](C)N3CC[C@](CC(C)(C)O)(c4ccccc4)OC3=O)cc2)CCCCC1` [Example 14, N-(1-((4-((S)-1-((S)-6-(2-hydroxy-2-methylpropyl)-2-oxo-6-phenyl-1,3-oxazinan-3-yl)ethyl)phenyl)ethynyl)cyclohexyl)acetamide] displayed an inhibition at 0.1 µM of 89.8% and a half-inhibitory concentration (IC50) of 4.2 nM.
In the same order, the values of `C[C@@H](c1ccc(C#CC2(N)CCCCC2)cc1)N1CC[C@](CC(C)(C)O)(c2ccccc2)OC1=O` [Example 13, (S)-3-((S)-1-(4-((1-aminocyclohexyl)ethynyl)phenyl)ethyl)-6-(2-hydroxy-2-methylpropyl)-6-phenyl-1,3-oxazinan-2-one] are 82.5% and 12.4 nM.
In the same order, the values of `C[C@@H](c1ccc(C#CC(C)(C)NS(C)(=O)=O)cc1)N1CC[C@](CC(C)(C)O)(c2ccccc2)OC1=O` [Example 21, N-(4-(4-((S)-1-((S)-6-(2-hydroxy-2-methylpropyl)-2-oxo-6-phenyl-1,3-oxazinan-3-yl)ethyl)phenyl)-2-methylbut-3-yn-2-yl)methanesulfonamide] are 93.7% and 3.4 nM.
As to `CC(=O)N1CC(O)(C#Cc2ccc([C@H](C)N3CC[C@](CC(C)(C)O)(c4ccccc4)OC3=O)cc2)C1` [Example 25, (S)-3-((S)-1-(4-((1-acetyl-3-hydroxyazetidin-3-yl)ethynyl)phenyl)ethyl)-6-(2-hydroxy-2-methylpropyl)-6-phenyl-1,3-oxazinan-2-one], testing at 0.1 µM gave an inhibition of 94.1% and it took 3.6 nM to reach half-maximal inhibition (IC50).
Take `C[C@@H](c1ccc(C#CC(C)(C)C(=O)O)cc1)N1CC[C@](CC(C)(C)O)(c2ccccc2)OC1=O` [Example 4, 4-(4-((S)-1-((S)-6-(2-hydroxy-2-methylpropyl)-2-oxo-6-phenyl-1,3-oxazinan-3-yl)ethyl)phenyl)-2,2-dimethylbut-3-ynoic acid]: at 0.1 µM the inhibition was 86% and the 50% inhibitory concentration (IC50) was found to be 13.4 nM.
`C[C@@H](c1ccc(C#CC2(O)CCOCC2)cc1)N1CC[C@](CC(C)(C)O)(c2ccccc2)OC1=O` [Example 10, (S)-6-(2-hydroxy-2-methylpropyl)-3-((S)-1-(4-((4-hydroxytetrahydro-2H-pyran-4-yl)ethynyl)phenyl)ethyl)-6-phenyl-1,3-oxazinan-2-one] registered an inhibition at 0.1 µM of 84.7% and a half-maximal inhibitory concentration (IC50) of 6.9 nM.
For `CC(=O)NC(C)(C)C#Cc1ccc([C@H](C)N2CC[C@](CC(C)(C)O)(c3ccccc3)OC2=O)cc1` [Example 17, N-(4-(4-((S)-1-((S)-6-(2-hydroxy-2-methylpropyl)-2-oxo-6-phenyl-1,3-oxazinan-3-yl)ethyl)phenyl)-2-methylbut-3-yn-2-yl)acetamide] the same measures were 84.9% and 11.9 nM.
In the same order, the values of `C[C@@H](c1ccc(C#CC(C)(C)C(=O)N(C)C)cc1)N1CC[C@](CC(C)(C)O)(c2ccccc2)OC1=O` [Example 5, 4-(4-((S)-1-((S)-6-(2-hydroxy-2-methylpropyl)-2-oxo-6-phenyl-1,3-oxazinan-3-yl)ethyl)phenyl)-N,N,2,2-tetramethylbut-3-ynamide] are 97% and 1.1 nM.
In the case of `C[C@@H](c1ccc(C#CC(C)(C)N2CCOC2=O)cc1)N1CC[C@](CC(C)(C)O)(c2ccccc2)OC1=O` [Example 3, (S)-6-(2-hydroxy-2-methylpropyl)-3-((S)-1-(4-(3-methyl-3-(2-oxooxazolidin-3-yl)but-1-ynyl)phenyl)ethyl)-6-phenyl-1,3-oxazinan-2-one], 0.1 µM produced 99.8% inhibition and the concentration for half-maximal inhibition (IC50) is 1.1 nM.
For the compound `COC(=O)OC1(C#Cc2ccc([C@H](C)N3CC[C@](CC(C)(C)O)(c4ccccc4)OC3=O)cc2)CN(C(=O)OC)C1` [Example 27, Methyl 3-((4-((S)-1-((S)-6-(2-hydroxy-2-methylpropyl)-2-oxo-6-phenyl-1,3-oxazinan-3-yl)ethyl)phenyl)ethynyl)-3-(methoxycarbonyloxy)azetidine-1-carboxylate], the inhibition at 0.1 µM came out at 95.8% and the 50% inhibitory concentration (IC50) was found to be 2.4 nM.
In the case of `C[C@@H](c1ccc(C#CC(C)(C)NC(=O)N(C)C)cc1)N1CC[C@](CC(C)(C)O)(c2ccccc2)OC1=O` [Example 23, 3-(4-(4-((S)-1-((S)-6-(2-hydroxy-2-methylpropyl)-2-oxo-6-phenyl-1,3-oxazinan-3-yl)ethyl)phenyl)-2-methylbut-3-yn-2-yl)-1,1-dimethylurea], 0.1 µM produced 86% inhibition and the IC50 worked out at 12.3 nM.
In the case of `C[C@@H](c1ccc(C#CC2(NC(N)=O)CCCCC2)cc1)N1CC[C@](CC(C)(C)O)(c2ccccc2)OC1=O` [Example 16, 1-(1-((4-((S)-1-((S)-6-(2-hydroxy-2-methylpropyl)-2-oxo-6-phenyl-1,3-oxazinan-3-yl)ethyl)phenyl)ethynyl)cyclohexyl)urea], at 0.1 µM the inhibition was 95.6% and the IC50 stood at 3.1 nM.
